Tested on: VSV-GFP
Experiment: microbe, parasite or virus in culture
Format: cell-based, vesicular stomatitis virus

SMILES: C[C@H](CCCC(C)(C)O)[C@H]1CC[C@H]2[C@@H]3CC=C4C[C@@H](O)CC[C@]4(C)[C@H]3CC[C@]12C [25HC, 25-hydroxycholesterol]
- VSV infection in HEK293T overexpressing active forms of SREBP1-A, SREBP1-B, and SREBP2: inhibited VSV infection

From US11020409B2, “Broad antiviral therapy with membrane modifying oxysterols” (priority 2012, dated 2021)
